These results are taken from US9163027B2, “Substituted triazolo-pyrimidine compounds for modulating cell proliferation differentiation and survival” (STATegics, Inc., priority 2012, dated 2015).

Data set [1] concerns PC12 cells. Nature of the data set: PC12 cell survival under serum deprivation (CellTiter-Glo). The class given is cell-based, rat. The note with it: 72 h serum-free; for minimal effective concentration: Rattus norvegicus, PC-12, read-out: PC12 cell proliferation (CellTiter-Glo ®) Concentration at which RLU increased >25% compared to medium control. As to the method:
Each culture condition was performed in quadruplicate in each experiment and the mean values were calculated. The results represent mean±SEM of relative light unit values when compared to the mean values obtained in the presence of the medium alone. A total of 13 experiments were performed and the statistical significance was analyzed using GraphPad Prism software using ANOVA, followed by paired t-test. The symbol * indicates P-values <0.01.
PC12 cells were cultured in DMEM supplemented with 10% fetal calf serum and 5% horse serum. […] Cell viability was analyzed by CellTiter-Glo® reagent (Promega).
PC12 cells were cultured in DMEM supplemented with 10% fetal calf serum and 5% horse serum. […] Cell survival of the serum-starved cells was analyzed by CellTiter-Glo® reagent luminescence reading.
FIG. 2 illustrates neuroprotective effects of Compounds 1-5 when tested in PC12 cell protection assays. PC12 cells were subjected to serum deprivation as described under FIG. 1.
PC12 cells were cultured in DMEM supplemented with 10% fetal calf serum and 5% horse serum. […] Cell survival of the serum-starved cells was analyzed by CellTiter-Glo® reagent luminescence reading (relative light units, “RLU”). […] “NS” indicates RLU increased <25% when compounds were tested at 5 uM.
In general terms: ATP-based viability assays read luminescence as a measure of living cells.

The subject of data set [2] is EPO receptor. As to the kind of experiment: EPO receptor phosphorylation in erythroleukemia cell line TF-1 (phospho-EPOR ELISA). The class given is cell-based, human. The note with it: TF-1, 10 min, FIG. 5B. Here is the method:
(§1) Primary micro-dissected fetal brain tissue was obtained from a commercial source (Advanced Bioscience Resources, Inc., Alameda, Calif.). Cultured primary human fetal neural cells (3 h, 1 day, 17 days, or 26 days in culture) were incubated with Compound 5, Compound 6, or controls for 10 min (FIG. 5A). Phospho-EPOR was detected by ELISA (R&D Systems). […] Human erythropoietic cell line TF-1 was cultured for 10 min in the presence of Compound 5, Compound 6, or the controls, and phospho-EPOR was detected by ELISA (R&D Systems). The data represent mean±SEM of triplicate cultures. […] The receptor activation results were consistent with functional cell based assays using primary human CD34+ bone marrow progenitor cells and erythroleukemia cell line TF-1.
For orientation: ELISA stands for enzyme-linked immunosorbent assay.

The target of data set [3] is T1, EPO receptor (Homo sapiens, UniProt P19235).
T1 construct: endogenous in cells; host or cells: primary human fetal neural cells cultured from micro-dissected fetal brain tissue (Advanced Bioscience Resources, Inc.)
T1 sequence (P19235 25-508): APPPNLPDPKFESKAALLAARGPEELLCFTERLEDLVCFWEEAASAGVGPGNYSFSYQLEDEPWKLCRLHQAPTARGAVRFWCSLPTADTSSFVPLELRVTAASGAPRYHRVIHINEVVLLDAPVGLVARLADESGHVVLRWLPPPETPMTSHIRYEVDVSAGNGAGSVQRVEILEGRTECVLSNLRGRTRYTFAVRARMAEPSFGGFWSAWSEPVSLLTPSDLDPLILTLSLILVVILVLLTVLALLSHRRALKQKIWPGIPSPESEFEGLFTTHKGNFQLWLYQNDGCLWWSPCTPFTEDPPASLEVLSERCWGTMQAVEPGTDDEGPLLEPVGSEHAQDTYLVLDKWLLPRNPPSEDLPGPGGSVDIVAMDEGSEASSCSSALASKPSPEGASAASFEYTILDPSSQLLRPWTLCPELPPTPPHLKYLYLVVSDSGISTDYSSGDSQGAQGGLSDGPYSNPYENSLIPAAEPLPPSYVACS
Nature of the data set: EPO receptor phosphorylation in primary human fetal neural cells (phospho-EPOR ELISA). The format is cell-based. The note with it: FIG. 5A; for EPO receptor phosphorylation: 10 min incubation; for level of receptor activation compared with recombinant human EPO: recombinant human EPO 10 IU/ml. Here is the method:
as §1

Data set [4] relates to primary human neurons. Nature of the data set: Neuroprotection of primary human neurons against staurosporine. The class given is cell-based. The note with it: 47 days in culture, compound 24 h, then staurosporine 500 nM 24 h, FIG. 3B. As to the method: A) Primary rat cortical neurons were isolated from micro-surgically dissected regions of day 18 embryonic rat brain (Brain Bits, LLC, Springfield, Ill.) and cultured for 12 days in vitro. Then, Compounds 5-7 were added for 24 h. Next, NMDA (50 uM) was added and the cells were cultured for an additional 24 hours. Cells cultured without the insult were considered to represent 0% neuron death. The data represent mean±SEM of six replicate cultures and * indicates P value ≦0.05. B) Primary micro-dissected fetal brain tissue was obtained from a commercial source (Advanced Bioscience Resources, Inc., Alameda, Calif.). […] Staurosporine (500 nM) was added and the cells were cultured for an additional 24 hours. Cells cultured without the insult were considered to represent 0% neuron death. The data represent mean±SEM of six replicate cultures and * indicates P value ≦0.05.

Data set [5] concerns TF-1 cells. Nature of the data set: Proliferation of TF-1 cells. The class given is cell-based, human. The conditions noted are these: at concentrations that provided significant neuroprotective effects.
In data set [6] the test system is frataxin. Nature of the data set: Frataxin protein levels in primary human fetal neurons (ELISA). The format is cell-based. The conditions noted are these: 28 days in culture, 24 h incubation, FIG. 4B. Here is the method:
The effects of the compounds on frataxin protein levels in cells were analyzed. […] Embryonic mouse cell line P19 was differentiated into neuronal cells in the presence of retinoic acid and frataxin levels were measured (FIG. 4A). Frataxin levels were measured after 24 h by multi-species frataxin-ELISA (MitoSciences) and compared to total protein levels. The data represent mean±SEM. Primary human fetal neurons (28 days in culture) were also incubated for 24 h in the presence of the compounds, and human frataxin levels were measured by ELISA (MitoSciences) and compared to total protein levels (FIG. 4B). The data represent mean±SEM of triplicate measurements. Compounds were also tested for their effects on frataxin levels in cells derived from patients with FRDA. Cultures of patient peripheral blood mononuclear cells (PBMCs) were also used to test the EPO mimetic compounds for frataxin enhancement in frataxin-deficient cells. Compound 1 and Compounds 5-6 enhanced frataxin levels in these patient cells at concentration 1 uM or lower.

Data set [7] concerns rats. As to the kind of experiment: Kidney and CNS protection against DMA + Cremophor EL toxicity in rats. The class given is in vivo, rat. The note with it: DMA + CrEL 2.5 mL/kg each IP. As to the method: High-dose N,N-dimethylacetamide (DMA)+Cremophor EL (CrEL) (2.5 mL/kg each, IP) was used to induce acute CNS and organ toxicity, and the potential of Compound 5 to protect the rats was studied.

Data set [8] has as its system rat ventral mesencephalic dopaminergic neurons. Nature of the data set: Protection of primary dopaminergic neurons from 6-OHDA (THir neuron staining). The class given is cell-based. The conditions noted are these: 6.25 uM 6-OHDA 40 min, FIG. 7. Here is the method: Dissociated embryonic D14 rat ventral mesencephalic cells were used.
Dopaminergic neurons play a key role in the pathogenesis of Parkinson's disease and compounds enhancing survival of these cells have significant therapeutic potential. Dissociated embryonic D14 rat ventral mesencephalic cells were used to test the potential of EPO mimetic compounds to protect primary dopaminergic neurons. […] The cells were plated in 48-well poly-D-lysine coated plates using a microisland technique. The microislands were seeded into dry plates in 10 uL aliquots of 3000 cells/uL and incubated at 37° C. for 1 h to allow for adhesion. […] On day 3, the medium was replaced with 6.25 uM 6-hydroxydopamine (6-OHDA, Sigma) for a 40 minute incubation. The toxin was then removed and the cells were cultured for an additional 2 days. On day 5, the cells were fixed, permeabilized and stained for tyrosine hydroxylase-immunoreactive (THir) neurons.

For data set [9] the following is noted: human, intravenous administration (Xenocostas et al. 2005); cited from earlier work.
The test system of data set [10] is rats. The note with it: rat model of MCA occlusion (Brines et al. 2000); cited from earlier work.
The subject of data set [11] is frataxin. The note with it: patients with chronic kidney disease, rhEPO infusion for anemia (Sturm et al. 2005); cited from earlier work.
Data set [12] deals with frataxin. The conditions noted are these: 8 FRDA patients, open label pilot trial (Boesch et al. 2008); cited from earlier work.
Data set [13] has as its system human CD34+ hematopoietic stem cells. Nature of the data set: Proliferation and differentiation of primary human CD34+ cells. The class given is cell-based. Here is the method:
Compound 10 was tested at different concentrations for its ability to induce proliferation and differentiation of human CD34+ hematopoietic stem cells. Human CD34+ cells were purified by (FIG. 6A) immunomagnetic beads (>90% purity, purchased from Stem Cell Technologies) or (FIG. 6B) cell sorting (at Blood Systems Research Institute) and the cells were cultured in the presence of compounds for eight (FIG. 6A) or eleven (FIG. 6B) days. (FIG. 6A) The level of cell growth and survival was measured based on ATP levels (CellTiterGlo reagent), or (FIG. 6B) the expression level of CD235a was analyzed by flow cytometry as a marker for cell maturation. Cell survival was analyzed using the CellTiterGlo reagent to measure ATP levels as a marker of metabolically active cells that have not undergone apoptosis, and expression of CD235a as a marker of erythroid cell differentiation and as a specific marker for EPO-like erythropoietic activity.

Setting [14] is: NS = RLU increased <25% at 5 uM.

As to `Cc1cc(C)n2nc(OCCOc3ccc(Cl)cc3)nc2n1` [Example 11, 2-[2-(4-chlorophenoxy)ethoxy]-5,7-dimethyl-[1,2,4]triazolo[1,5-a]pyrimidine], the minimal effective concentration in data set [1] (setting [14]) was below 5 µM. Moreover, the “EPO receptor activation (phospho-EPOR)” value in data set [2] is “did not activate EPO receptor”. For the same compound, in [3], the EPO receptor phosphorylation result is given as “increased EPO receptor phosphorylation in a dose-dependent manner” and the “level of receptor activation compared with recombinant human EPO” value is reported as “comparable to that induced by recombinant human EPO”. The “neuroprotective effect (neuron death)” value in data set [4] is “Significant protective effects”. Besides, the “proliferation of TF-1 cells” value in [5] is reported as “did not induce proliferation”. The frataxin protein levels result in data set [6] is “increased frataxin protein levels”. In addition, in data set [7], the “CNS toxicity of DMA/CrEL” value is recorded as “prevented the CNS toxicity” and the “response of the rats to formalin injection” value is “normalized the response”. Moreover, in data set [7] (FIG. 8), the “kidney-protective effects measured by hypoproteinemia in serum” value is “Kidney-protective effects”.

As for `Cc1cc(C)n2nc(SCCOc3ccc(Cl)cc3)nc2n1` [Example 1, 2-{[2-(4-chlorophenoxy)ethyl]sulfanyl}-5,7-dimethyl-[1,2,4]triazolo[1,5-a]pyrimidine], the “protection of PC12 cells (cell viability)” value in [1] (1 uM, FIG. 1, at least comparable to rhEPO) is listed as “significant effect”. Also, the “level of protection of PC12 cells compared with rhEPO” value in [1] (5 uM vs rhEPO 10 U/ml, FIG. 1) is given as “higher level of protection than rhEPO”. The minimal effective concentration in data set [1] (setting [14]) was below 5 µM. The “protection of dopaminergic neurons from 6-OHDA toxicity” value in data set [8] (1 uM) is “significantly protected”.

For `Cc1cc(C)n2nc(OCCN(CCO)c3ccccc3)nc2n1` [Example 13, 2-{[2-({5,7-Dimethyl-[1,2,4]triazolo[1,5-a]pyrimidin-2-yl}oxy)ethyl](phenyl)amino}ethan-1-ol], the minimal effective concentration in data set [1] (setting [14]) was below 5 µM. Besides, in data set [2], the “EPO receptor activation (phospho-EPOR)” value is “did not activate EPO receptor”. Also, in [3], the EPO receptor phosphorylation entry is listed as “increased EPO receptor phosphorylation in a dose-dependent manner” and the “level of receptor activation compared with recombinant human EPO” value was “comparable to that induced by recombinant human EPO”. For the same compound, the “neuroprotective effect (neuron death)” value in data set [4] was “Significant protective effects”. Also, in data set [5], the “proliferation of TF-1 cells” value is given as “did not induce proliferation”. Moreover, the frataxin protein levels result in data set [6] is given as “increased frataxin protein levels”.

With “rhEPO: recombinant human (rh)EPO, erythropoietin; positive control”, in [9], the “concentration in cerebrospinal fluid lower than in circulation” value is “more than 1000 fold”. Moreover, the “protection of dopaminergic neurons from 6-OHDA toxicity” value in data set [8] (10 IU/ml) was “significantly protected”. The “reduction of infarct volume” value in data set [10] is 50-75%. The “EPO receptor activation (phospho-EPOR)” value in [2] is “effective”. Further, the “increase in frataxin levels in peripheral blood mononuclear cells” value in data set [11] is 2-3 fold. In [12], the “increase in frataxin in lymphocytes” value is on record as 24%.

With `COc1ccc(NC(=O)CSc2nc3nc(C)cc(C)n3n2)cc1` [Example 10, 2-({5,7-dimethyl-[1,2,4]triazolo[1,5-a]pyrimidin-2-yl}sulfanyl)-N-(4-methoxyphenyl)acetamide], the “PC12 cell proliferation (CellTiter-Glo ®) Concentration at which RLU increased >25% compared to medium control” value in data set [1] (setting [14]) is reported as “NS (RLU increased <25% when compounds were tested at 5 uM)”. The “CD34+ progenitor cell proliferation (ATP levels, CellTiterGlo)” value in [13] (eight days culture, FIG. 6A) is “dose-dependent induction of CD34+ progenitor cell proliferation”. Moreover, in data set [13] (eleven days culture, FIG. 6B), the “differentiation into erythroid cells (CD235a expression, flow cytometry)” value is given as “differentiation into erythroid cells expressing CD235a”.
